Some test systems named below: SNB-78 CNS; M19-MEL melanoma; DLD-1 colon; LXFL 529 NSCLC; HOP-18 NSCLC; DMS 114 small cell lung; KM20L2 colon; MDA-N; RXF-631 renal.
Test in all cases: NCI tumour cell line growth inhibition, 48 h

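Interpolation was linear, between the two tested concentrations surrounding the appropriate level; five concentrations were tested over 48 hours in 96-well plates. GI50 is the concentration that inhibits growth by half. TGI: concentration producing complete growth inhibition.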

`COc1cc([C@@H]2c3cc4c(cc3[C@@H](NC(=O)c3ccc(C#N)cc3)C3COC(=O)[C@@H]32)OCO4)cc(OC)c1O` (stereo partly specified): the TGI with SNB-78 CNS is 58.2 µM; with M19-MEL melanoma, 15.6 µM; in the assay with DLD-1 colon, 12 µM; in the assay with LXFL 529 NSCLC it was more than 100 µM; with HOP-18 NSCLC it was more than 100 µM; in the assay with DMS 114 small cell lung, 2.27 µM. Also, the TGI with KM20L2 colon was found to be 4.51 µM.
On to `O=[N+]([O-])c1ccc(Cl)c2c([N+](=O)[O-])cccc12`, for which the TGI in the assay on MDA-N is 4.29 µM.
On to `COc1cc2oc(-c3ccc(O)cc3)cc(=O)c2c(O)c1C1OC(CO)C(O)C(O)C1O` (stereo unspecified), for which the TGI with SNB-78 CNS, in the assay with M19-MEL melanoma, in the assay on DLD-1 colon, with LXFL 529 NSCLC, with HOP-18 NSCLC and with DMS 114 small cell lung was more than 100 µM each time. This molecule gave a TGI with KM20L2 colon of more than 100 µM.
In the assay with MDA-N, `COCC([C@@H](O)C(O)C(=O)NCC[C@@H](C)c1nc(/C=C/CC2OC3(C[C@H](O)C2C)OC(C(C[C@H](O)C(C)[C@H](O)C(C)/C=C(C)/C(C)=C/C=C/C(C)=C/C#N)OC)[C@@H](OP(=O)(O)O)C3(C)C)co1)N(C)C` (stereo partly specified) registered a TGI of 0.000358 µM.
For the molecule `O=C1NC2=C(CCCCC/C2=N\O)C12CCCCCC2`, the TGI in the assay on SNB-78 CNS, in the assay with M19-MEL melanoma, in the assay on DLD-1 colon, in the assay on LXFL 529 NSCLC, in the assay on HOP-18 NSCLC and in the assay on DMS 114 small cell lung was more than 100 µM in each case.
With `Cc1nc(N)nc(CCC(=O)Nc2cccc(C(F)(F)F)c2)c1-c1ccc(Cl)cc1`, the TGI in the assay with SNB-78 CNS, in the assay on M19-MEL melanoma, in the assay with DLD-1 colon, in the assay with RXF-631 renal, in the assay on LXFL 529 NSCLC and with HOP-18 NSCLC was more than 100 µM each time. The TGI in the assay on DMS 114 small cell lung and with KM20L2 colon was more than 100 µM each time.
With `COc1cc(CNc2nc3cc(N)cc(N)c3nc2-c2ccccc2)cc(OC)c1`, in the assay on MDA-N, the GI50 was 2.33 µM and the TGI is 5.21 µM.
For `CCc1cccc(C)c1NC(=O)CCc1nc(=S)[nH][nH]1`, the TGI in the assay with SNB-78 CNS, with M19-MEL melanoma, in the assay with DLD-1 colon, in the assay on LXFL 529 NSCLC, in the assay on HOP-18 NSCLC and in the assay on DMS 114 small cell lung was more than 100 µM in each case. In the assay with KM20L2 colon, this molecule showed a TGI of more than 100 µM.
Consider `O=C1/C(=C\c2ccccc2)CN(C(=O)CCN2CCCCC2)C/C1=C/c1ccccc1`, for which the TGI turned out to be 10.6 µM in the assay on SNB-78 CNS; 1.78 µM with M19-MEL melanoma; 3.12 µM in the assay with DLD-1 colon; 5.4 µM with MDA-N; 4.69 µM in the assay on RXF-631 renal; 3.05 µM in the assay with LXFL 529 NSCLC. Further, the TGI in the assay on HOP-18 NSCLC worked out at 7.37 µM; in the assay with DMS 114 small cell lung, 3.05 µM; in the assay with KM20L2 colon, 2.97 µM.
For `O=C(NC1C(=O)NNC1c1cccc([N+](=O)[O-])c1)c1ccccc1` (stereo unspecified), the TGI with SNB-78 CNS, in the assay with M19-MEL melanoma, with DLD-1 colon, in the assay on RXF-631 renal, with LXFL 529 NSCLC and in the assay on HOP-18 NSCLC was more than 100 µM each time. For the same molecule, the TGI with DMS 114 small cell lung and in the assay on KM20L2 colon was more than 100 µM each time.
With `OCc1cc2c(cn1)[nH]c1ccc(NCc3ccccc3)cc12`, the TGI in the assay on M19-MEL melanoma is 60.3 µM; with DLD-1 colon, more than 100 µM; in the assay on RXF-631 renal, more than 100 µM; in the assay with LXFL 529 NSCLC, 58.8 µM; with DMS 114 small cell lung, 51.1 µM; in the assay on KM20L2 colon it was 55.6 µM.
For `O=[N+]([O-])c1ccccc1C1SCc2nc3ccccc3n21` (stereo unspecified), the TGI with DLD-1 colon, in the assay on RXF-631 renal, in the assay with LXFL 529 NSCLC, in the assay with HOP-18 NSCLC and in the assay on DMS 114 small cell lung was more than 100 µM each time.
Regarding `CC1=C(C(=O)Nc2ccccc2)C(c2ccc(N(C)C)cc2)C(C(=O)Nc2ccccc2)=C(C)N1`, the TGI is more than 100 µM with SNB-78 CNS; more than 28.9 µM with M19-MEL melanoma; more than 100 µM in the assay on DLD-1 colon; more than 100 µM in the assay with MDA-N; more than 100 µM in the assay with LXFL 529 NSCLC; more than 100 µM in the assay on HOP-18 NSCLC. Further, the TGI with DMS 114 small cell lung is 6.57 µM; with KM20L2 colon it was 7.26 µM.
Consider `COC1N(C2CC(O)C(CO)O2)C(=O)NC(=O)C1(F)Br` (stereo unspecified), for which the TGI with SNB-78 CNS is more than 50 µM; in the assay with DLD-1 colon, 50 µM; in the assay with MDA-N, more than 100 µM; in the assay with RXF-631 renal, 50 µM; in the assay with LXFL 529 NSCLC it was 50 µM; with HOP-18 NSCLC, more than 50 µM. In addition, the TGI with DMS 114 small cell lung and in the assay with KM20L2 colon was 50 µM throughout.
Regarding `O=c1cc(O)cc2n1CCC2`, the TGI with SNB-78 CNS, with DLD-1 colon, in the assay with RXF-631 renal, in the assay with LXFL 529 NSCLC, in the assay on DMS 114 small cell lung and in the assay on KM20L2 colon was more than 100 µM throughout.
For the molecule `COC(=O)C1C(=O)O[C@@H](c2ccc3c(c2)OCO3)C1C(=O)OC` (mixture of isomers), the TGI in the assay with SNB-78 CNS, in the assay with M19-MEL melanoma, in the assay on DLD-1 colon, in the assay on RXF-631 renal, with LXFL 529 NSCLC and in the assay with DMS 114 small cell lung was more than 100 µM each time. The TGI in the assay with KM20L2 colon is more than 100 µM.
Turning to `CCN(C)c1nc(N(C)CC)c2nc(N(C)CC)nc(N(C)CC)c2n1`, the TGI in the assay with MDA-N is more than 100 µM.
The molecule `CC(Br)C(=O)NC(CO)C(=O)O` (stereo unspecified) registered a TGI with MDA-N of more than 100 µM.
On to `COC(=O)CCC(NC(=S)N/N=C/c1cccs1)C(=O)OC` (stereo unspecified), for which the TGI in the assay on SNB-78 CNS, with M19-MEL melanoma, with DLD-1 colon, with RXF-631 renal, in the assay on LXFL 529 NSCLC and in the assay on HOP-18 NSCLC was more than 100 µM each time. In addition, the TGI in the assay with DMS 114 small cell lung and with KM20L2 colon was more than 100 µM each time.
